Experimental data: the kinase profiling compilation of Christmann-Franck et al. (2016)

How the values were obtained:
Experiment in all cases: KINOMEscan competition binding
Conditions in all cases: compound 10.0 µM
MAPKAPK5 (human) = MAPKAPK5 (human) (UniProt Q8IW41)
DCLK3 (human) = DCLK3 (human) (UniProt Q9C098)
NTRK2 (human) = NTRK2 (human) (UniProt Q16620)
MAPK12 (human) = MAPK12 (human) (UniProt P53778)
EGFR (human) = EGFR (human) (UniProt P00533)
CAMK2A (human) = CAMK2A (human) (UniProt Q9UQM7)
CDK16 (human) = CDK16 (human) (UniProt Q00536)
PIK3CD (human) = PIK3CD (human) (UniProt O00329)
LIMK1 (human) = LIMK1 (human) (UniProt P53667)
TIE1 (human) = TIE1 (human) (UniProt P35590)
MAP3K10 (human) = MAP3K10 (human) (UniProt Q02779)
CLK3 (human) = CLK3 (human) (UniProt P49761)
DCLK2 (human) = DCLK2 (human) (UniProt Q8N568)
EPHA6 (human) = EPHA6 (human) (UniProt Q9UF33)
SIK2 (human) = SIK2 (human) (UniProt Q9H0K1)
MAP2K4 (human) = MAP2K4 (human) (UniProt P45985)
HCK (human) = HCK (human) (UniProt P08631)
STK35 (human) = STK35 (human) (UniProt Q8TDR2)
TTK (human) = TTK (human) (UniProt P33981)
MAPK14 (human) = MAPK14 (human) (UniProt Q16539)
CSNK2A1 (human) = CSNK2A1 (human) (UniProt P68400)
BMPR2 (human) = BMPR2 (human) (UniProt Q13873)
MAPKAPK2 (human) = MAPKAPK2 (human) (UniProt P49137)
PRKACA (human) = PRKACA (human) (UniProt P17612)
NTRK3 (human) = NTRK3 (human) (UniProt Q16288)
DAPK1 (human) = DAPK1 (human) (UniProt P53355)
MUSK (human) = MUSK (human) (UniProt O15146)
NEK2 (human) = NEK2 (human) (UniProt P51955)
PIM2 (human) = PIM2 (human) (UniProt Q9P1W9)
FLT4 (human) = FLT4 (human) (UniProt P35916)
GSK3A (human) = GSK3A (human) (UniProt P49840)
ADCK4 (human) = ADCK4 (human) (UniProt Q96D53)
EPHA4 (human) = EPHA4 (human) (UniProt P54764)
STK36 (human) = STK36 (human) (UniProt Q9NRP7)
NEK1 (human) = NEK1 (human) (UniProt Q96PY6)
CSNK1A1L (human) = CSNK1A1L (human) (UniProt Q8N752)
CSNK1A1L (human), sequence (Q8N752 whole entry, looked up): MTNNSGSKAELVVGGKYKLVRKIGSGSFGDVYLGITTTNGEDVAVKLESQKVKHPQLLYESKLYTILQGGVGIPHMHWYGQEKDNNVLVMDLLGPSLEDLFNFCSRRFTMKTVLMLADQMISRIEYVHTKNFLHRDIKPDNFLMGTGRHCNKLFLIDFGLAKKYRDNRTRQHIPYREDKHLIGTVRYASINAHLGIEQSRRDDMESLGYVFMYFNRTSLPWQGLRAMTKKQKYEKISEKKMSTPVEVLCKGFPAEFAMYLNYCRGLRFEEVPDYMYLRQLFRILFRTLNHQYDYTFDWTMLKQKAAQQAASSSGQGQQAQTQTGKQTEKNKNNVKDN

MAP3K10 (human), sequence (Q02779 whole entry, looked up): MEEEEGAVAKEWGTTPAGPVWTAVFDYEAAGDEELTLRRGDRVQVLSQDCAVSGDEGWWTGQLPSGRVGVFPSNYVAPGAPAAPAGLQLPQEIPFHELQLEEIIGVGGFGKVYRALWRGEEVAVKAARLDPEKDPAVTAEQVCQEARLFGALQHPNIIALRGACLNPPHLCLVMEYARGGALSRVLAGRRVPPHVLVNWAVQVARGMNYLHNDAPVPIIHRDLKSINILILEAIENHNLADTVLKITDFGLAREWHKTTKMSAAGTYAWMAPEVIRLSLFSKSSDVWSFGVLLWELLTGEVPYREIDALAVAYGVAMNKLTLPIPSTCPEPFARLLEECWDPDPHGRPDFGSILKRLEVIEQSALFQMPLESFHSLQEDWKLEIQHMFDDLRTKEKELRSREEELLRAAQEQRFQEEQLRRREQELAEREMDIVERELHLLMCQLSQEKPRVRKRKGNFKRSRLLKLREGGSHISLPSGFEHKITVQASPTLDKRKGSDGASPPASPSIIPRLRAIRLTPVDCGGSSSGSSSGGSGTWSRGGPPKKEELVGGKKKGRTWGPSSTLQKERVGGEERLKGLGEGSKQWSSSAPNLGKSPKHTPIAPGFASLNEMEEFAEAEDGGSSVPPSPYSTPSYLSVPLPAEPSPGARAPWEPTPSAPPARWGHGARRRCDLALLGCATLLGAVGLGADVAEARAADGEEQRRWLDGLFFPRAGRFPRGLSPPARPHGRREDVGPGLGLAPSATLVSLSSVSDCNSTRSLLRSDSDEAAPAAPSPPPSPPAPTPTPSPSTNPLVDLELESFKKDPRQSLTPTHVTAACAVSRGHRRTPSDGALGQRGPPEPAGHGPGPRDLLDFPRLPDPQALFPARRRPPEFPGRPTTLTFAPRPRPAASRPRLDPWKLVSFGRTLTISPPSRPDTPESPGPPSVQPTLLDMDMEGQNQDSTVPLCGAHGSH
SIK2 (human), sequence (Q9H0K1 whole entry, looked up): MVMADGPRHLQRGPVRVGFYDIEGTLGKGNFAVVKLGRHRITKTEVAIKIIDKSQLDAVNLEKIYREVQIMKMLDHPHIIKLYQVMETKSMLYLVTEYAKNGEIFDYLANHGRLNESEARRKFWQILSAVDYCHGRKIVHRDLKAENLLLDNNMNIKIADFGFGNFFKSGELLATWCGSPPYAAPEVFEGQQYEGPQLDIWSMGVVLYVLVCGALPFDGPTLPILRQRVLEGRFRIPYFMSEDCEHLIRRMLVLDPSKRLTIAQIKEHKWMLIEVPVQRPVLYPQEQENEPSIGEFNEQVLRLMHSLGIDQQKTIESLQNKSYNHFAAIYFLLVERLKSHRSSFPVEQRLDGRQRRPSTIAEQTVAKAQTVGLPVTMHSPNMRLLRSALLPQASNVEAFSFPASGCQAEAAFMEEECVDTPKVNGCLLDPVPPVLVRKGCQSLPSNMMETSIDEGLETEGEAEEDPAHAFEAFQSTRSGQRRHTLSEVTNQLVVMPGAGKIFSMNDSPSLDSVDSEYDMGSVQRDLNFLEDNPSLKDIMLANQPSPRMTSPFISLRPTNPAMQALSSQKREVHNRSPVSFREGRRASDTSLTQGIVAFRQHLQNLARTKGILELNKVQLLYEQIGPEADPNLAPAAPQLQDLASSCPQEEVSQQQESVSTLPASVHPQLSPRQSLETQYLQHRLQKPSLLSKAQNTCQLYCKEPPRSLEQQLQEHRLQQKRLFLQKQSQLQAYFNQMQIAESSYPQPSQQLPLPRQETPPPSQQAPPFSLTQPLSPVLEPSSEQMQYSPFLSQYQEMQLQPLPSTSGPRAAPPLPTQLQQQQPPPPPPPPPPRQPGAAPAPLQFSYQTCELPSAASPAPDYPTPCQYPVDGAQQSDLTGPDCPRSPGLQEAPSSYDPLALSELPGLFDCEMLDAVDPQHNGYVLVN
EPHA4 (human), sequence (P54764 whole entry, looked up): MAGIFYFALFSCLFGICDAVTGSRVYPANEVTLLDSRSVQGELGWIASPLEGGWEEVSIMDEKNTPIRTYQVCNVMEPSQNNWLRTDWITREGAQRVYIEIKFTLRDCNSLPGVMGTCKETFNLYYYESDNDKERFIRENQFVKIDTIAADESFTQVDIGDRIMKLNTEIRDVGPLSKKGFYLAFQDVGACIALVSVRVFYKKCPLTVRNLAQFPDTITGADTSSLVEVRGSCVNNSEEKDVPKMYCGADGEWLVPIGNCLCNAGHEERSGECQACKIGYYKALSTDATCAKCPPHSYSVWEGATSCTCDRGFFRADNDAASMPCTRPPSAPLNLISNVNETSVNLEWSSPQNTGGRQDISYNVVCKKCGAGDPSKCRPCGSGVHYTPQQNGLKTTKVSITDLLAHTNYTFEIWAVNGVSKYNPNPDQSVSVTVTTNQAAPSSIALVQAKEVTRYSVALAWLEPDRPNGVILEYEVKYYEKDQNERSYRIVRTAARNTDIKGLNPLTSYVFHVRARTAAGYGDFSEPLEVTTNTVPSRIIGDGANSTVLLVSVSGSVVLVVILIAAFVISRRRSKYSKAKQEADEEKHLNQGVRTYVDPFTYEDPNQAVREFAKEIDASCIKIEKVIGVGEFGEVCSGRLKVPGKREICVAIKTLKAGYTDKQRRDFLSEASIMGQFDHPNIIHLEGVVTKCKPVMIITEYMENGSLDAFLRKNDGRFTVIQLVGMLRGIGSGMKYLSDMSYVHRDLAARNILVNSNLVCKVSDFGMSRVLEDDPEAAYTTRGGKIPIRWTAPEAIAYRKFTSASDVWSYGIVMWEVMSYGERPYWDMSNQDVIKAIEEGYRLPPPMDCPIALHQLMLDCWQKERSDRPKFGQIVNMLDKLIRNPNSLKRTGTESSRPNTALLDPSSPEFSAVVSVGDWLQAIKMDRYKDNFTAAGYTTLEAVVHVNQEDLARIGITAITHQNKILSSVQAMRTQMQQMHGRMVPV
EPHA6 (human), sequence (Q9UF33 whole entry, looked up): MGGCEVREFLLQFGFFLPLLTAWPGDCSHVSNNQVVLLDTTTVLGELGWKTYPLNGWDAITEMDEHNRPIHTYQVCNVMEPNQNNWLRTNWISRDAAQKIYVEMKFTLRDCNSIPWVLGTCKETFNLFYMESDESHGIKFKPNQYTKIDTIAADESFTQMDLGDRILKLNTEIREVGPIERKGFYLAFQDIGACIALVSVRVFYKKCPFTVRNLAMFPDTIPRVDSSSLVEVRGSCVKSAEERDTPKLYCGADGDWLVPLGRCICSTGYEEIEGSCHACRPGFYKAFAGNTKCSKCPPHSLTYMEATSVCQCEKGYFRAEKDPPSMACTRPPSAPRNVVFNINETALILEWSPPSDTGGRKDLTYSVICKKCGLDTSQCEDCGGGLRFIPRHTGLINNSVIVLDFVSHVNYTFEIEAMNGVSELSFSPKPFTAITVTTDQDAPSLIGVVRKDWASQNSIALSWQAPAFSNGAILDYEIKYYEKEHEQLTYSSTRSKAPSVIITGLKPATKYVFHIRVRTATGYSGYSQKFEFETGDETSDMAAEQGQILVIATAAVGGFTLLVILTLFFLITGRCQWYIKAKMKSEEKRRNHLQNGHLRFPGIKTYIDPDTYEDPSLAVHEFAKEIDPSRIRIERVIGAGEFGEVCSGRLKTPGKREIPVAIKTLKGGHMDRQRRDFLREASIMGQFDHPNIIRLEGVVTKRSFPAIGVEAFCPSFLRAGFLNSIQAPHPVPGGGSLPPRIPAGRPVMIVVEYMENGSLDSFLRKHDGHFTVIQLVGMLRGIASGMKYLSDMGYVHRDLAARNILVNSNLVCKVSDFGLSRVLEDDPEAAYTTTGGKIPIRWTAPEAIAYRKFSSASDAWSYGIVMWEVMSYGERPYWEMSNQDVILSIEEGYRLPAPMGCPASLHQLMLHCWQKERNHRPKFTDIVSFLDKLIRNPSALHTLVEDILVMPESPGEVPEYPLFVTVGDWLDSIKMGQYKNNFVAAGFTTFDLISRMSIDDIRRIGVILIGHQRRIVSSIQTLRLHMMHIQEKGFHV
TTK (human), sequence (P33981 whole entry, looked up): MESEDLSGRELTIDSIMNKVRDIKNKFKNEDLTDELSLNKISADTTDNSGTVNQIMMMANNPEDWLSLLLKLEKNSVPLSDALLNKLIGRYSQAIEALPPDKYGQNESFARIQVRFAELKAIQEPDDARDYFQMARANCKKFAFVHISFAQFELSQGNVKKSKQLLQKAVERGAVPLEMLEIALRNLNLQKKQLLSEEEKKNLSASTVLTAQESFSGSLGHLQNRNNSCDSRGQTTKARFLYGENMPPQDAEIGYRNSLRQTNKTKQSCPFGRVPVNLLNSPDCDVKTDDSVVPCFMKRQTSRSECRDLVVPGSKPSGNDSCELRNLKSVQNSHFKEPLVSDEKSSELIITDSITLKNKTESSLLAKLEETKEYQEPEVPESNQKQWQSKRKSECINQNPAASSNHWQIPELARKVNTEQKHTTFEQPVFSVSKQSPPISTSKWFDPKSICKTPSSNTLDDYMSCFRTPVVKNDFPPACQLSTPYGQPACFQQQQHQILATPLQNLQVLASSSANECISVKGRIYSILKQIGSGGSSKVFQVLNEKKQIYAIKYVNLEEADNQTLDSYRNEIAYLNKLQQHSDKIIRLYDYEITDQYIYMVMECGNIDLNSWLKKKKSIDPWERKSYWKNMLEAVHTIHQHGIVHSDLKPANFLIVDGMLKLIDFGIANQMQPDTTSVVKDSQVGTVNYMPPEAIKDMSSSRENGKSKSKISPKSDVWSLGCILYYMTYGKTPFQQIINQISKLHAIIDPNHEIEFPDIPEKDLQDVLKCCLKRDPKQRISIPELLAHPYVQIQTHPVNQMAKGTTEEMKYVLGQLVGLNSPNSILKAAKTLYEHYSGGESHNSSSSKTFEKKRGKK

Compound	kinase still bound, per cent of control (MAPKAPK5 (human))	kinase still bound, per cent of control (DCLK3 (human))	kinase still bound, per cent of control (NTRK2 (human))	kinase still bound, per cent of control (CAMK2A (human))	kinase still bound, per cent of control (CDK16 (human))	kinase still bound, per cent of control (LIMK1 (human))	kinase still bound, per cent of control (TIE1 (human))	kinase still bound, per cent of control (MAP3K10 (human))	kinase still bound, per cent of control (CLK3 (human))	kinase still bound, per cent of control (DCLK2 (human))	kinase still bound, per cent of control (EPHA6 (human))	kinase still bound, per cent of control (SIK2 (human))	kinase still bound, per cent of control (MAP2K4 (human))	kinase still bound, per cent of control (HCK (human))	kinase still bound, per cent of control (TTK (human))	kinase still bound, per cent of control (MAPK14 (human))	kinase still bound, per cent of control (CSNK2A1 (human))	kinase still bound, per cent of control (BMPR2 (human))	kinase still bound, per cent of control (MAPKAPK2 (human))	kinase still bound, per cent of control (PRKACA (human))	other results
C=CC(=O)Nc1ccc(CN(C(=O)Nc2c(Cl)c(OC)cc(OC)c2Cl)c2cc(Nc3ccc(N4CCN(C)CC4)cc3)ncn2)cc1	100%	100%	100%	100%	100%	100%	0%	13%	100%	100%	100%	100%	100%	11%	100%	100%	100%	8.9%	100%	100%	kinase still bound, per cent of control (MAPK12 (human)): 100%; kinase still bound, per cent of control (EGFR (human)): 0.35%; kinase still bound, per cent of control (PIK3CD (human)): 100%; kinase still bound, per cent of control (STK35 (human)): 100%; kinase still bound, per cent of control (NTRK3 (human)): 100%; kinase still bound, per cent of control (DAPK1 (human)): 100%; kinase still bound, per cent of control (MUSK (human)): 6.2%; kinase still bound, per cent of control (NEK2 (human)): 100%; kinase still bound, per cent of control (PIM2 (human)): 100%; kinase still bound, per cent of control (FLT4 (human)): 0.1%; kinase still bound, per cent of control (GSK3A (human)): 100%; kinase still bound, per cent of control (ADCK4 (human)): 100%; kinase still bound, per cent of control (EPHA4 (human)): 100%; kinase still bound, per cent of control (STK36 (human)): 100%; kinase still bound, per cent of control (NEK1 (human)): 100%; kinase still bound, per cent of control (CSNK1A1L (human)): 100%
CCN(CC)CCCCNc1ncc2cc(-c3cc(OC)cc(OC)c3)c(NC(=O)NC(C)(C)C)nc2n1	100%	100%	100%	100%	100%	100%	12%	100%	100%	100%	100%	100%	100%	100%	100%	100%	100%	100%	100%	100%	kinase still bound, per cent of control (MAPK12 (human)): 100%; kinase still bound, per cent of control (NTRK3 (human)): 100%; kinase still bound, per cent of control (DAPK1 (human)): 100%; kinase still bound, per cent of control (MUSK (human)): 100%; kinase still bound, per cent of control (NEK2 (human)): 100%; kinase still bound, per cent of control (PIM2 (human)): 100%; kinase still bound, per cent of control (FLT4 (human)): 6%; kinase still bound, per cent of control (GSK3A (human)): 100%; kinase still bound, per cent of control (ADCK4 (human)): 100%; kinase still bound, per cent of control (EPHA4 (human)): 100%; kinase still bound, per cent of control (STK36 (human)): 100%; kinase still bound, per cent of control (NEK1 (human)): 100%; kinase still bound, per cent of control (CSNK1A1L (human)): 100%
Cc1n[nH]c2ccc(-c3cncc(OC[C@@H](N)Cc4c[nH]c5ccccc45)c3)cc12	100%	2%	100%	0.7%	16%	100%	31%	100%	0%	100%	100%	100%	100%	100%	100%	100%	17%	100%	100%	0.85%	kinase still bound, per cent of control (PIK3CD (human)): 100%; kinase still bound, per cent of control (STK35 (human)): 100%; kinase still bound, per cent of control (NTRK3 (human)): 100%; kinase still bound, per cent of control (DAPK1 (human)): 2.2%; kinase still bound, per cent of control (MUSK (human)): 100%; kinase still bound, per cent of control (NEK2 (human)): 100%; kinase still bound, per cent of control (PIM2 (human)): 1.2%; kinase still bound, per cent of control (FLT4 (human)): 100%; kinase still bound, per cent of control (GSK3A (human)): 1%; kinase still bound, per cent of control (ADCK4 (human)): 100%; kinase still bound, per cent of control (EPHA4 (human)): 100%; kinase still bound, per cent of control (STK36 (human)): 100%; kinase still bound, per cent of control (NEK1 (human)): 100%; kinase still bound, per cent of control (CSNK1A1L (human)): 11%
